Reference: patent publication US20230051589A1, “COMPOUNDS AND COMPOSITIONS FOR TREATING CONDITIONS ASSOCIATED WITH NLRP ACTIVITY” (Novartis AG, priority 2018, published 2023)

These compounds were tested on IL-1β production in PMA-differentiated THP-1 cells (assay: IL-1β production in PMA-differentiated THP-1 cells stimulated with gramicidin (hTHP-1 assay, 2% fetal bovine serum; Procedures 1-3)). Details: Homo sapiens, THP-1, Table B1; hTHP-1 assay containing 2% fetal bovine serum, gramicidin stimulation, IL-1β readout; read-out: hTHP-1 IC50 (average).
Assay type: cell-based, human
In short: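 IL-1β released into supernatants was read by HTRF after 2 h gramicidin (5 μM) challenge. Before challenge, compounds (3-fold dilutions, top 100 μM, 0.37% DMSO) were given 1 h on THP-1 cells differentiated with PMA (20 ng/ml, 16-18 h) and held in 2% FBS medium.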

Row | SMILES | IC50 [nM]
1 | CC(C)(O)c1ncc(S(N)(=O)=NC(=O)Nc2c3c(c(F)c4c2CCC4)CCC3)s1 (stereo not drawn) [Example 44, N′-(8-fluoro-1,2,3,5,6,7-hexahydro-s-indacen-4-ylcarbamoyl)-2-(2-hydroxypropan-2-yl)thiazole-5-sulfonimidamide] | […]

Same assay, conditions: Homo sapiens, THP-1, Table B3; hTHP-1 assay containing 2% fetal bovine serum, gramicidin stimulation, IL-1β readout; read-out: hTHP-1 IC50

Row | SMILES | IC50 [nM]
2 | NS(=O)(=NC(=O)Nc1c2c(cc3c1CC3)CCC2)c1sc2c(c1F)COCC2 (stereo not drawn) [Example 770, 3-Fluoro-N′-((2,4,5,6-tetrahydro-1H-cyclobuta[f]inden-3-yl)caibamoyl)-6,7-dihydro-4H-thieno[3,2-c]pyran-2-sulfonimidamide] | 200 to 1000
3 | CNC(c1ccc(S(N)(=O)=NC(=O)Nc2c3c(cc4c2CC4)CCC3)s1)C1CC1 (stereo not drawn) [Example 719, 5-(Cyclopropyl(methylamino)methyl)-N′-((2,4,5,6-tetrahydro-1H-cyclobuta[f]inden-3-yl)carbamoyl)thiophene-2-sulfonimidamide] | 8 to 40

Same assay, conditions: Homo sapiens, THP-1, hTHP-1 assay containing 2% fetal bovine serum, Table B2, class symbols; read-out: IC50

Row | SMILES | IC50 [nM]
4 | CN1CCc2ccc(S(N)(=O)=NC(=O)Nc3c4c(cc5c3CCC5)CCC4)cc2C1 (single isomer, unassigned) [Example 585, (R) or (S)-N′-((1,2,3,5,6,7-hexahydro-s-indacen-4-yl)carbamoyl)-2-methyl-1,2,3,4-tetrahydroisoquinoline-7-sulfonimidamide] | 1000 to 5000
5 | CN1CCC[C@H](c2ccc([S@](N)(=O)=NC(=O)Nc3c4c(cc5c3CC5)CCC4)c(F)c2)C1 [Compound 911b] | 1000 to 5000
6 | NS(=O)(=NC(=O)Nc1c2c(cc3c1CCC3)CCC2)c1cccc(CN2CCOCC2)c1 (single isomer, unassigned) [Example 550, (R) or (S)-N′-((1,2,3,5,6,7-hexahydro-s-indacen-4-yl)carbamoyl)-3-(morpholinomethyl) benzenesulfonimidamide] | 1000 to 5000
7 | CC(C)(O)c1ccc(S(N)(=O)=NC(=O)Nc2c3c(cc4c2C(=O)CC4)CCC3)cn1 (stereo not drawn) [Example 469, 6-(2-Hydroxypropan-2-yl)-N′-((3-oxo-1,2,3,5,6,7-hexahydro-s-indacen-4-yl)carbamoyl)pyridine-3-sulfonimidamide] | 1000 to 5000
8 | CC(C)(O)c1ccc(S(N)(=O)=NC(=O)Nc2cc3c(c4c2CCC4)CCC3)cn1 (single isomer, unassigned) [Example 591, (R) or (S)-N′-((1,2,3,6,7,8-hexahydro-as-indacen-4-yl)carbamoyl)-6-(2-hydro\ypropan-2-yl)pyridine-3-sulfonimidamide] | 1000 to 5000
9 | NS(=O)(=NC(=O)Nc1c2c(cc3c1CCC3)CCC2)c1ccc(C(F)F)nc1 (stereo not drawn) [Example 485, 6-(Difluoromethyl)-N′-((1,2,3,5,6,7-hexahydro-s-indacen-4-yl)carbamoyl)pyridine-3-sulfonimidamide] | 1000 to 5000
10 | CC(C)n1nc(S(N)(=O)=NC(=O)Nc2c3c(cc4c2C(=O)CC4)CCC3)cc1C(C)(C)O (stereo not drawn) [Compound 908] | 200 to 1000

Same assay, conditions: Homo sapiens, THP-1, hTHP-1 assay containing 2% fetal bovine serum, Table B2, given as bound; read-out: IC50

Row | SMILES | IC50 [nM]
11 | CN(Cc1ccc(S(N)(=O)=NC(=O)Nc2c3c(cc4c2CCC4)CCC3)cc1)CC(F)(F)F (single isomer, unassigned) [Example 608, (R) or (R)-N′-((1,2,3,5,6,7-hexahydro-s-indacen-4-yl)carbamoyl)-4-((methyl(2,2,2-trifluoroethyl)amino)methyl) benzenesulfonimidamide] | > 30000
12 | CC(C)(O)c1cnc([S@@](N)(=O)=NC(=O)Nc2c3c(cc4c2CCC4O)CCC3)s1 (stereo partly drawn) [Example 509, (S)-N′-((1-hydroxy-1,2,3,5,6,7-hexahydro-s-indacen-4-yl)carbamoyl)-5-(2-hydroxypropan-2-yl)thiazole-2-sulfonimidamide] | > 30000

Same assay, conditions: Table B1; hTHP-1 assay containing 2% fetal bovine serum, gramicidin stimulation, IL-1β readout; read-out: hTHP-1 IC50 (average)

Row | SMILES | IC50 [nM]
13 | CC(C)(O)c1ncc(S(N)(=O)=NC(=O)Nc2c3c(cc4c2C(O)CC4)CCC3)s1 (single isomer, unassigned) [Example 392, (R, S) or (R, R) or (S, R) or (S, S)-N′-((3-hydroxy-1,2,3,5,6,7-hexahydroxy-indacen-4-yl)carbamoyl)-2-(2-hydroxypropan-2-yl)thiazole-5-sulfonimid-amide] | 200 to 1000
14 | CC(C)(O)c1ncc(S(N)(=O)=NC(=O)Nc2c3c(cc4c2C(=O)CC4)CCC3)s1 (single isomer, unassigned) [Example 364, (R) or (S)-2-(2-Hydroxy-propan-2-yl)-N′-((3-oxo-1,2,3,5,6,7-hexahydro-s-indacen-4-yl)carbamoyl)-thiazole-5-sulfonimidamide] | 40 to 200

Same assay, conditions: Table B3; hTHP-1 assay containing 2% fetal bovine serum, gramicidin stimulation, IL-1β readout; read-out: hTHP-1 IC50

Row | SMILES | IC50 [nM]
15 | NS(=O)(=NC(=O)Nc1c2c(cc3c1CC3)CCC2)c1cc2c(s1)CCNC2 (single isomer, unassigned) [Example 717] | 200 to 1000
16 | NS(=O)(=NC(=O)Nc1c2c(cc3c1CC3)CCC2)c1sc2c(c1F)COCC2 (single isomer, unassigned) [Example 842, (S) or (R)-3-fluoro-N′-((2,4,5,6-tetrahydro-1H-cyclobuta[f]inden-3-yl)carbamoyl)-6,7-dihydro-4H-thieno[3,2-c]pyran-2-sulfonimidamide] | 5000 to 30000

Same assay, conditions: hTHP-1 assay containing 2% fetal bovine serum, Table B2, class symbols; read-out: IC50

Row | IC50 [nM] | SMILES
17 | 200 to 1000 | CC(O)(CO)c1ncc(S(N)(=O)=NC(=O)Nc2c3c(c(C#N)c4c2CCC4)CCC3)s1 (single isomer, unassigned) [Example 637, (R,R) or (S,R)-N′-((8-cyano-1,2,3,5,6,7-hexahydro-s-indacen-4-yl)carbamoyl)-2-(1,2-dihydroxypropan-2-yl)thiazole-5-sulfonimidamide]
18 | 40 to 200 | CO[C@H]1COc2c(S(N)(=O)=NC(=O)Nc3c4c(cc5c3CCC5)CCC4)cnn2C1 (single isomer, unassigned) [Example 695, (R) or (S)-(6R)-N′-((1,2,3,5,6,7-hexahydro-s-indacen-4-yl)carbamoyl)-6-methoxy-6,7-dihydro-5H-pyrazolo[5,1-b][1,3]oxazine-3-sulfonimidamide]
19 | 1000 to 5000 | CC(OC(F)F)c1ccc(S(N)(=O)=NC(=O)Nc2c3c(cc4c2CCC4)CCC3)cc1 (single isomer, unassigned) [Example 640]
20 | 1000 to 5000 | CN[C@H]1COc2c(S(N)(=O)=NC(=O)Nc3c4c(cc5c3CCC5)CCC4)cnn2C1 (single isomer, unassigned) [Example 698, (S) or (R)-(6R)-N′-((1,2,3,5,6,7-hexahydro-s-indacen-4-yl)carbamoyl)-6-(methylamino)-6,7-dihydro-5H-pyrazolo[5,1-b][1,3]oxazine-3-sulfonimidamide]

More lines, now with the values behind:

Row | SMILES | IC50 [nM]
21 | CC(C)(O)c1nc(S(N)(=O)=NC(=O)Nc2c3c(cc4c2CCC4)CCC3)cs1 (single isomer, unassigned) [Example 557, (R) or (S)-N′-((1,2,3,5,6,7-hexahydro-s-indacen-4-yl)cartoamoyl)-2-(2-hydroxypropan-2-yl)thiazole-4-sulfoni midamide] | 40 to 200
22 | CN(C)Cc1ccc(S(N)(=O)=NC(=O)Nc2c3c(cc4c2CC4)CC3)cc1 (single isomer, unassigned) [Example 582, (R) or (S)-4-((dimethylamino)methyl)-N′-(tricyclo[6.2.0.03,6]deca-1,3(6),7-trien-2-ylcarbamoyl) benzenesulfonimidamide] | 200 to 1000
23 | CC(C)(O)c1csc(S(N)(=O)=NC(=O)Nc2c3c(c(C#N)c4c2CCC4)CCC3)n1 (single isomer, unassigned) [Example 540, (S) or (R)-N′-((8-cyano-1,2,3,5,6,7-hexahydro-s-indacen-4-yl)carbamoyl)-4-(2-hydroxypropan-2-yl)thiazole-2-sulfonimidamide] | 1000 to 5000
24 | CC(C)(O)c1cnc(S(N)(=O)=NC(=O)Nc2c3c(cc4c2CCC4=O)CCC3)s1 (stereo not drawn) [Example 455, 5-(2-Hydroxypropan-2-yl)-N′-((1-oxo-1,2,3,5,6,7-hexahydro-s-indacen-4-yl)carbamoyl)thiazole-2-sulfonimidamide] | 1000 to 5000
25 | CC(C)c1cc2c(cc1NC(=O)N=S(N)(=O)c1cnc(C(C)(C)O)s1)CCC2 (single isomer, unassigned) [Example 527, (S) or (R)-2-(2-hydroxypropan-2-yl)-N′-((6-isopropyl-2,3-dihydro-1H-inden-5-yl)carbamoyl) thiazole-5-sulfonimidamide] | 1000 to 5000

What follows are compounds tested on IL-1β production in hTHP-1 cells (assay: hTHP-1 assay containing 10% fetal bovine serum). Details: Homo sapiens, read-out: hTHP-1 IC50 in 10% FBS, hTHP-1 assay containing 10% fetal bovine serum, Table B4.
Assay type: cell-based, human
Protocol: inhibition=100-100×[HCave−Readout/(HCave−LCave)] • 2. Fit the normalized data in a dose-response manner using XLfit, and calculate the compound concentration. Tables B1, B2, and B3 show the biological activity of compounds in hTHP-1 assay containing 2% fetal bovine serum. […] Key: <0.008 μM=“++++++”; ≥0.008 and <0.04 μM=“+++++”; ≥0.04 and <0.2 μM=“++++”; ≥0.2 and <1 μM=“+++”; ≥1 and <5 μM=“++”; ≥5 and <30 μM=“+”.

Row | SMILES | IC50 [nM]
26 | CC(C)(O)c1csc(S(N)(=O)=NC(=O)Nc2c3c(cc4c2CCC4)CCC3)c1F (stereo not drawn) [Example 878, 3-Fluoro-N′-((1,2,3,5,6,7-hexahydro-s-indacen-4-yl)carbamoyl)-4-(2-hydroxypropan-2-yl)thiophene-2-sulfonimidamide] | 40 to 200

Same assay, conditions: read-out: hTHP-1 IC50 in 10% FBS; hTHP-1 assay containing 10% fetal bovine serum, Table B4

Row | SMILES | IC50 [nM]
27 | CC(C)(O)c1csc(S(N)(=O)=NC(=O)Nc2c3c(cc4c2CCC4)CCC3)c1F (single isomer, unassigned) [Example 880, (R) or (S)-3-fluoro-N′-((1,2,3,5,6,7-hexahydro-s-indacen-4-yl)carbamoyl)-4-(2-hydroxypropan-2-yl)thiophene-2-sulfonimidamide] | 40 to 200
